Measurements as given in the supplement of paper PMC10307832.

How the values were obtained:
Experiment in all cases: relative viability (nuclei count vs DMSO), 5 days (fraction); higher = more cells survive
201T = system: 201T
Procedure, shortened: (§1)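 A single step with final 0.05% Triton X-100, 1% formaldehyde and 1 ug/ml Hoechst fixed the cells and stained nuclei 5 days after treatment. Lung cancer cell lines in 1536-well plates had been treated by pin tool the day after seeding with one drug alone or a fixed anchor-drug dose plus five library-drug doses (not always all listed) in √10 steps, and nuclei were counted on 4× images. Relative viability is the ratio of nuclei in treated wells to nuclei in vehicle wells, taken as the median of duplicate plates.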

ABC-1 = system: ABC-1
Procedure, shortened: as §1

CAL-12T = system: CAL-12T
Procedure, shortened: as §1

EMC-BAC-2 = system: EMC-BAC-2
Procedure, shortened: as §1

H3255 = system: H3255
Procedure, shortened: as §1

HOP-62 = system: HOP-62
Procedure, shortened: as §1

LK-2 = system: LK-2
Procedure, shortened: as §1

LXF-289 = system: LXF-289
Procedure, shortened: as §1

NCI-H1651 = system: NCI-H1651
Procedure, shortened: as §1

NCI-H1734 = system: NCI-H1734
Procedure, shortened: as §1

NCI-H1755 = system: NCI-H1755
Procedure, shortened: as §1

NCI-H2009 = system: NCI-H2009
Procedure, shortened: as §1

NCI-H2087 = system: NCI-H2087
Procedure, shortened: as §1

NCI-H2126 = system: NCI-H2126
Procedure, shortened: as §1

NCI-H2170 = system: NCI-H2170
Procedure, shortened: as §1

NCI-H322M = system: NCI-H322M
Procedure, shortened: as §1

NCI-H441 = system: NCI-H441
Procedure, shortened: as §1

NCI-H522 = system: NCI-H522
Procedure, shortened: as §1

NCI-H596 = system: NCI-H596
Procedure, shortened: as §1

NCI-H647 = system: NCI-H647
Procedure, shortened: as §1

SW 900 = system: SW 900
Procedure, shortened: as §1

For COCC1(CO)C(=O)C2CCN1CC2 (stereo not drawn) [PRIMA-1MET] + Cc1cc(Nc2cc(N3CCN(C)CC3)nc(Sc3ccc(NC(=O)C4CC4)cc3)n2)n[nH]1 [Tozasertib] (partner 0.1 µM), the relative viability (201T; first compound 0.2 µM) was 1.12, the relative viability (201T; first compound 0.6325 µM) was 0.912 and the relative viability (201T; first compound 2 µM) was 0.899. For the same molecule, the relative viability (201T; first compound 6.325 µM) was 0.908, the relative viability (201T; first compound 20 µM) was 0.905 and the relative viability (ABC-1; first compound 0.2 µM) was 0.243. For the same molecule, the relative viability (ABC-1; first compound 0.6325 µM) was 0.188, the relative viability (ABC-1; first compound 2 µM) was 0.17 and the relative viability (ABC-1; first compound 6.325 µM) was 0.145. For the same molecule, the relative viability (ABC-1; first compound 20 µM) was 0.259, the relative viability (CAL-12T; first compound 0.2 µM) was 0.339 and the relative viability (CAL-12T; first compound 0.6325 µM) was 0.275. For the same molecule, the relative viability (CAL-12T; first compound 2 µM) was 0.282, the relative viability (CAL-12T; first compound 6.325 µM) was 0.326 and the relative viability (CAL-12T; first compound 20 µM) was 0.263. For the same molecule, the relative viability (EMC-BAC-2; first compound 0.2 µM) was 0.335, the relative viability (EMC-BAC-2; first compound 0.6325 µM) was 0.332 and the relative viability (EMC-BAC-2; first compound 6.325 µM) was 0.277. It also gave a relative viability (EMC-BAC-2; first compound 20 µM) of 0.191, a relative viability (H3255; first compound 0.2 µM) of 0.807 and a relative viability (H3255; first compound 0.6325 µM) of 0.765. The relative viability (H3255; first compound 2 µM) was 0.461, the relative viability (H3255; first compound 6.325 µM) was 0.615 and the relative viability (H3255; first compound 20 µM) was 0.505. The relative viability (HOP-62; first compound 0.2 µM) was 0.426, the relative viability (HOP-62; first compound 0.6325 µM) was 0.341 and the relative viability (HOP-62; first compound 2 µM) was 0.38. For the same molecule, the relative viability (HOP-62; first compound 6.325 µM) was 0.383, the relative viability (HOP-62; first compound 20 µM) was 0.305 and the relative viability (LK-2; first compound 0.2 µM) was 0.189. For the same molecule, the relative viability (LK-2; first compound 0.6325 µM) was 0.177, the relative viability (LK-2; first compound 2 µM) was 0.144 and the relative viability (LK-2; first compound 6.325 µM) was 0.161. For the same molecule, the relative viability (LK-2; first compound 20 µM) was 0.132, the relative viability (LXF-289; first compound 0.2 µM) was 0.217 and the relative viability (LXF-289; first compound 0.6325 µM) was 0.173. The relative viability (LXF-289; first compound 2 µM) was 0.16, the relative viability (LXF-289; first compound 6.325 µM) was 0.175 and the relative viability (LXF-289; first compound 20 µM) was 0.192. The relative viability (NCI-H1651; first compound 0.2 µM) was 0.848, the relative viability (NCI-H1651; first compound 0.6325 µM) was 0.66 and the relative viability (NCI-H1651; first compound 2 µM) was 0.723. It also gave a relative viability (NCI-H1651; first compound 6.325 µM) of 0.712, a relative viability (NCI-H1651; first compound 20 µM) of 0.649 and a relative viability (NCI-H1734; first compound 0.2 µM) of 0.294. For the same molecule, the relative viability (NCI-H1734; first compound 0.6325 µM) was 0.265, the relative viability (NCI-H1734; first compound 2 µM) was 0.233 and the relative viability (NCI-H1734; first compound 6.325 µM) was 0.181. For the same molecule, the relative viability (NCI-H1734; first compound 20 µM) was 0.0526, the relative viability (NCI-H1755; first compound 0.2 µM) was 0.699 and the relative viability (NCI-H1755; first compound 0.6325 µM) was 0.596. The relative viability (NCI-H1755; first compound 2 µM) was 0.509, the relative viability (NCI-H1755; first compound 6.325 µM) was 0.554 and the relative viability (NCI-H1755; first compound 20 µM) was 0.455. The relative viability (NCI-H2009; first compound 0.2 µM) was 0.846, the relative viability (NCI-H2009; first compound 0.6325 µM) was 0.742 and the relative viability (NCI-H2009; first compound 2 µM) was 0.948. It also gave a relative viability (NCI-H2009; first compound 6.325 µM) of 0.726, a relative viability (NCI-H2009; first compound 20 µM) of 0.0462 and a relative viability (NCI-H2087; first compound 0.2 µM) of 0.321. For the same molecule, the relative viability (NCI-H2087; first compound 0.6325 µM) was 0.279, the relative viability (NCI-H2087; first compound 2 µM) was 0.267 and the relative viability (NCI-H2087; first compound 6.325 µM) was 0.271. For the same molecule, the relative viability (NCI-H2087; first compound 20 µM) was 0.126, the relative viability (NCI-H2126; first compound 0.2 µM) was 1.07 and the relative viability (NCI-H2126; first compound 0.6325 µM) was 0.868. The relative viability (NCI-H2126; first compound 2 µM) was 0.854, the relative viability (NCI-H2126; first compound 6.325 µM) was 0.898 and the relative viability (NCI-H2126; first compound 20 µM) was 0.807. For the same molecule, the relative viability (NCI-H2170; first compound 0.2 µM) was 0.9, the relative viability (NCI-H2170; first compound 0.6325 µM) was 0.671 and the relative viability (NCI-H2170; first compound 2 µM) was 0.677. For the same molecule, the relative viability (NCI-H2170; first compound 6.325 µM) was 0.722, the relative viability (NCI-H2170; first compound 20 µM) was 0.678 and the relative viability (NCI-H322M; first compound 0.2 µM) was 0.515. For the same molecule, the relative viability (NCI-H322M; first compound 0.6325 µM) was 0.523, the relative viability (NCI-H322M; first compound 6.325 µM) was 0.504 and the relative viability (NCI-H322M; first compound 20 µM) was 0.286. For the same molecule, the relative viability (NCI-H441; first compound 0.2 µM) was 0.629, the relative viability (NCI-H441; first compound 0.6325 µM) was 0.667 and the relative viability (NCI-H441; first compound 2 µM) was 0.77. The relative viability (NCI-H441; first compound 6.325 µM) was 0.743, the relative viability (NCI-H441; first compound 20 µM) was 0.309 and the relative viability (NCI-H522; first compound 0.2 µM) was 0.602. For the same molecule, the relative viability (NCI-H522; first compound 0.6325 µM) was 0.455, the relative viability (NCI-H522; first compound 2 µM) was 0.46 and the relative viability (NCI-H522; first compound 6.325 µM) was 0.507. It also gave a relative viability (NCI-H522; first compound 20 µM) of 0.0873, a relative viability (NCI-H596; first compound 0.2 µM) of 0.96 and a relative viability (NCI-H596; first compound 0.6325 µM) of 0.803. It also gave a relative viability (NCI-H596; first compound 2 µM) of 0.869, a relative viability (NCI-H596; first compound 6.325 µM) of 1.02 and a relative viability (NCI-H596; first compound 20 µM) of 0.102. For the same molecule, the relative viability (NCI-H647; first compound 0.2 µM) was 0.615, the relative viability (NCI-H647; first compound 0.6325 µM) was 0.324 and the relative viability (NCI-H647; first compound 2 µM) was 0.263. It also gave a relative viability (NCI-H647; first compound 6.325 µM) of 0.543, a relative viability (NCI-H647; first compound 20 µM) of 0.0988 and a relative viability (SW 900; first compound 0.2 µM) of 0.784. For the same molecule, the relative viability (SW 900; first compound 0.6325 µM) was 0.465, the relative viability (SW 900; first compound 2 µM) was 0.524 and the relative viability (SW 900; first compound 6.325 µM) was 0.388. It also gave a relative viability (SW 900; first compound 20 µM) of 0.084.
